Data from patent publication US20060004019A1, “Steroid sparing agents and methods of using same” (priority 2004, published 2006).

Test system: rat cardiac allografts
Experiment: Rat cardiac allograft study, Allograft Study 5, dose response (Table 23)
Format: in vivo

In the case of CC(C)OC(=O)[C@H](Cc1ccc(OC(=O)N2CCN(C)CC2)cc1)NC(=O)[C@H]1N([S+]([O-])c2cccnc2)CSC1(C)C (stereo partly drawn) [listing 1 of 2 here], the “graft survival, data normalized to group size” value (“graft survival, data normalized” below) (day 1, 3 mg/kg s.c.) is reported as 100%, the “graft survival, data normalized” value (day 2, 3 mg/kg s.c.) is reported as 100% and the “graft survival, data normalized” value (day 3, 3 mg/kg s.c.) is reported as 100%. The “graft survival, data normalized” value (day 4, 3 mg/kg s.c.) was 100%, the “graft survival, data normalized” value (day 5, 3 mg/kg s.c.) was 100% and the “graft survival, data normalized” value (day 6, 3 mg/kg s.c.) was 100%. The “graft survival, data normalized” value (day 7, 3 mg/kg s.c.) was 83%, the “graft survival, data normalized” value (day 8, 3 mg/kg s.c.) was 83% and the “graft survival, data normalized” value (day 9, 3 mg/kg s.c.) was 50%. For the same compound, the “graft survival, data normalized” value (day 10, 3 mg/kg s.c.) was 0%, the “graft survival, data normalized” value (day 11, 3 mg/kg s.c.) was 0% and the “graft survival, data normalized” value (day 12, 3 mg/kg s.c.) was 0%. The “graft survival, data normalized” value (day 13, 3 mg/kg s.c.) was 0% and the “graft survival, data normalized” value (day 14, 3 mg/kg s.c.) was 0%.

With CC(C)OC(=O)[C@H](Cc1ccc(OC(=O)N2CCN(C)CC2)cc1)NC(=O)[C@H]1N(S(=O)(=O)c2cccnc2)CSC1(C)C [listing 1 of 4 here] the “number of surviving grafts” value (day 0, 10 mg/kg s.c.) was 5, the “number of surviving grafts” value (day 1, 10 mg/kg s.c.) was 5 and the “number of surviving grafts” value (day 2, 10 mg/kg s.c.) was 5. For the same compound, the “number of surviving grafts” value (day 3, 10 mg/kg s.c.) was 5, the “number of surviving grafts” value (day 4, 10 mg/kg s.c.) was 5 and the “number of surviving grafts” value (day 5, 10 mg/kg s.c.) was 5. For the same compound, the “number of surviving grafts” value (day 6, 10 mg/kg s.c.) was 5, the “number of surviving grafts” value (day 7, 10 mg/kg s.c.) was 5 and the “number of surviving grafts” value (day 8, 10 mg/kg s.c.) was 5. For the same compound, the “number of surviving grafts” value (day 9, 10 mg/kg s.c.) was 4, the “number of surviving grafts” value (day 10, 10 mg/kg s.c.) was 4 and the “number of surviving grafts” value (day 11, 10 mg/kg s.c.) was 4. The “number of surviving grafts” value (day 12, 10 mg/kg s.c.) was 4, the “number of surviving grafts” value (day 13, 10 mg/kg s.c.) was 2 and the “number of surviving grafts” value (day 14, 10 mg/kg s.c.) was 2. The “graft survival, data normalized” value (day 15, 10 mg/kg s.c.) was 40%, the “number of surviving grafts” value (day 15, 10 mg/kg s.c.) was 2 and the “graft survival, data normalized” value (day 16, 10 mg/kg s.c.) was 20%. For the same compound, the “number of surviving grafts” value (day 16, 10 mg/kg s.c.) was 1, the “graft survival, data normalized” value (day 17, 10 mg/kg s.c.) was 20% and the “number of surviving grafts” value (day 17, 10 mg/kg s.c.) was 1. For the same compound, the “graft survival, data normalized” value (day 18, 10 mg/kg s.c.) was 20%, the “number of surviving grafts” value (day 18, 10 mg/kg s.c.) was 1 and the “graft survival, data normalized” value (day 19, 10 mg/kg s.c.) was 20%. The “number of surviving grafts” value (day 19, 10 mg/kg s.c.) was 1, the “graft survival, data normalized” value (day 20, 10 mg/kg s.c.) was 20% and the “number of surviving grafts” value (day 20, 10 mg/kg s.c.) was 1. The “graft survival, data normalized” value (day 21, 10 mg/kg s.c.) was 20% and the “number of surviving grafts” value (day 21, 10 mg/kg s.c.) was 1.

CC(C)OC(=O)[C@H](Cc1ccc(OC(=O)N2CCN(C)CC2)cc1)NC(=O)[C@H]1N(S(=O)(=O)c2cccnc2)CSC1(C)C [listing 2 of 4 here] was tested, and the “graft survival, data normalized” value (day 1, 10 mg/kg s.c.) was 100%, the “graft survival, data normalized” value (day 2, 10 mg/kg s.c.) was 100% and the “graft survival, data normalized” value (day 3, 10 mg/kg s.c.) was 100%. For the same compound, the “graft survival, data normalized” value (day 4, 10 mg/kg s.c.) was 100%, the “graft survival, data normalized” value (day 5, 10 mg/kg s.c.) was 100% and the “graft survival, data normalized” value (day 6, 10 mg/kg s.c.) was 100%. The “graft survival, data normalized” value (day 7, 10 mg/kg s.c.) was 100%, the “graft survival, data normalized” value (day 8, 10 mg/kg s.c.) was 100% and the “graft survival, data normalized” value (day 9, 10 mg/kg s.c.) was 80%. For the same compound, the “graft survival, data normalized” value (day 10, 10 mg/kg s.c.) was 80%, the “graft survival, data normalized” value (day 11, 10 mg/kg s.c.) was 80% and the “graft survival, data normalized” value (day 12, 10 mg/kg s.c.) was 80%. For the same compound, the “graft survival, data normalized” value (day 13, 10 mg/kg s.c.) was 40% and the “graft survival, data normalized” value (day 14, 10 mg/kg s.c.) was 40%.

With CC(C)OC(=O)[C@H](Cc1ccc(OC(=O)N2CCN(C)CC2)cc1)NC(=O)[C@H]1N(S(=O)(=O)c2cccnc2)CSC1(C)C [listing 3 of 4 here] the “graft survival, data normalized” value (day 1, 30 mg/kg s.c.) was 100%, the “graft survival, data normalized” value (day 2, 30 mg/kg s.c.) was 100% and the “graft survival, data normalized” value (day 3, 30 mg/kg s.c.) was 100%. The “graft survival, data normalized” value (day 4, 30 mg/kg s.c.) was 100%, the “graft survival, data normalized” value (day 5, 30 mg/kg s.c.) was 100% and the “graft survival, data normalized” value (day 6, 30 mg/kg s.c.) was 100%. The “graft survival, data normalized” value (day 7, 30 mg/kg s.c.) was 100%, the “graft survival, data normalized” value (day 8, 30 mg/kg s.c.) was 100% and the “graft survival, data normalized” value (day 9, 30 mg/kg s.c.) was 100%. The “graft survival, data normalized” value (day 10, 30 mg/kg s.c.) was 100%, the “graft survival, data normalized” value (day 11, 30 mg/kg s.c.) was 100% and the “graft survival, data normalized” value (day 12, 30 mg/kg s.c.) was 100%. For the same compound, the “graft survival, data normalized” value (day 13, 30 mg/kg s.c.) was 100% and the “graft survival, data normalized” value (day 14, 30 mg/kg s.c.) was 100%.

In the case of CC(C)OC(=O)[C@H](Cc1ccc(OC(=O)N2CCN(C)CC2)cc1)NC(=O)[C@H]1N(S(=O)(=O)c2cccnc2)CSC1(C)C [listing 4 of 4 here], the “number of surviving grafts” value (day 0, 30 mg/kg s.c.) is reported as 6, the “number of surviving grafts” value (day 1, 30 mg/kg s.c.) is reported as 6 and the “number of surviving grafts” value (day 2, 30 mg/kg s.c.) is reported as 6. The “number of surviving grafts” value (day 3, 30 mg/kg s.c.) was 6, the “number of surviving grafts” value (day 4, 30 mg/kg s.c.) was 6 and the “number of surviving grafts” value (day 5, 30 mg/kg s.c.) was 6. The “number of surviving grafts” value (day 6, 30 mg/kg s.c.) was 6, the “number of surviving grafts” value (day 7, 30 mg/kg s.c.) was 6 and the “number of surviving grafts” value (day 8, 30 mg/kg s.c.) was 6. For the same compound, the “number of surviving grafts” value (day 9, 30 mg/kg s.c.) was 6, the “number of surviving grafts” value (day 10, 30 mg/kg s.c.) was 6 and the “number of surviving grafts” value (day 11, 30 mg/kg s.c.) was 6. For the same compound, the “number of surviving grafts” value (day 12, 30 mg/kg s.c.) was 6, the “number of surviving grafts” value (day 13, 30 mg/kg s.c.) was 6 and the “number of surviving grafts” value (day 14, 30 mg/kg s.c.) was 6. For the same compound, the “graft survival, data normalized” value (day 15, 30 mg/kg s.c.) was 100%, the “number of surviving grafts” value (day 15, 30 mg/kg s.c.) was 6 and the “graft survival, data normalized” value (day 16, 30 mg/kg s.c.) was 100%. For the same compound, the “number of surviving grafts” value (day 16, 30 mg/kg s.c.) was 6, the “graft survival, data normalized” value (day 17, 30 mg/kg s.c.) was 100% and the “number of surviving grafts” value (day 17, 30 mg/kg s.c.) was 6. The “graft survival, data normalized” value (day 18, 30 mg/kg s.c.) was 100%, the “number of surviving grafts” value (day 18, 30 mg/kg s.c.) was 6 and the “graft survival, data normalized” value (day 19, 30 mg/kg s.c.) was 100%. The “number of surviving grafts” value (day 19, 30 mg/kg s.c.) was 6, the “graft survival, data normalized” value (day 20, 30 mg/kg s.c.) was 100% and the “number of surviving grafts” value (day 20, 30 mg/kg s.c.) was 6. The “graft survival, data normalized” value (day 21, 30 mg/kg s.c.) was 83% and the “number of surviving grafts” value (day 21, 30 mg/kg s.c.) was 5.

For CC(C)OC(=O)[C@H](Cc1ccc(OC(=O)N2CCN(C)CC2)cc1)NC(=O)[C@H]1N([S+]([O-])c2cccnc2)CSC1(C)C (stereo partly drawn) [listing 2 of 2 here], the “number of surviving grafts” value (day 0, 3 mg/kg s.c.) was 6, the “number of surviving grafts” value (day 1, 3 mg/kg s.c.) was 6 and the “number of surviving grafts” value (day 2, 3 mg/kg s.c.) was 6. The “number of surviving grafts” value (day 3, 3 mg/kg s.c.) was 6, the “number of surviving grafts” value (day 4, 3 mg/kg s.c.) was 6 and the “number of surviving grafts” value (day 5, 3 mg/kg s.c.) was 6. For the same compound, the “number of surviving grafts” value (day 6, 3 mg/kg s.c.) was 6, the “number of surviving grafts” value (day 7, 3 mg/kg s.c.) was 5 and the “number of surviving grafts” value (day 8, 3 mg/kg s.c.) was 5. For the same compound, the “number of surviving grafts” value (day 9, 3 mg/kg s.c.) was 3, the “number of surviving grafts” value (day 10, 3 mg/kg s.c.) was 0 and the “number of surviving grafts” value (day 11, 3 mg/kg s.c.) was 0. For the same compound, the “number of surviving grafts” value (day 12, 3 mg/kg s.c.) was 0, the “number of surviving grafts” value (day 13, 3 mg/kg s.c.) was 0 and the “number of surviving grafts” value (day 14, 3 mg/kg s.c.) was 0. The “graft survival, data normalized” value (day 15, 3 mg/kg s.c.) was 0%, the “number of surviving grafts” value (day 15, 3 mg/kg s.c.) was 0 and the “graft survival, data normalized” value (day 16, 3 mg/kg s.c.) was 16%. The “number of surviving grafts” value (day 16, 3 mg/kg s.c.) was 0, the “graft survival, data normalized” value (day 17, 3 mg/kg s.c.) was 17% and the “number of surviving grafts” value (day 17, 3 mg/kg s.c.) was 0. For the same compound, the “graft survival, data normalized” value (day 18, 3 mg/kg s.c.) was 18%, the “number of surviving grafts” value (day 18, 3 mg/kg s.c.) was 0 and the “graft survival, data normalized” value (day 19, 3 mg/kg s.c.) was 19%. For the same compound, the “number of surviving grafts” value (day 19, 3 mg/kg s.c.) was 0, the “graft survival, data normalized” value (day 20, 3 mg/kg s.c.) was 20% and the “number of surviving grafts” value (day 20, 3 mg/kg s.c.) was 0. For the same compound, the “graft survival, data normalized” value (day 21, 3 mg/kg s.c.) was 21% and the “number of surviving grafts” value (day 21, 3 mg/kg s.c.) was 0.
